Laboratory results published in US10549006B2, “High-coverage, low odor malodor counteractant compounds and methods of use” (International Flavors & Fragrances Inc., priority 2014, dated 2020).

How the values were obtained:
[1] = Malodor counteracting effect, scale of 0 to 5; settings: 10% in water; scale of 0 to 5, 0=none, 1=minimal effect, 5=the highest possible effect
Procedure: (ii) Malodor counteracting effect was evaluated using a scale of 0 to 5, where 0=none, 1=minimal effect and 5=the highest possible effect. High coverage of mold/mildew and sweat malodors by Compounds 1-6 (10% in water) was reported in the following: […]

[2] = Percent Reduction of Malodor Intensity; settings: 10% in water
From the text: (iii) Malodor counteracting effect of Compounds 1-6 (10% in water) was further evaluated and their respective “Percent Reduction of Malodor Intensity” was reported in the following: […]

| SMILES | Malodor counteracting effect, Mold/Mildew [1] | Malodor counteracting effect, Sweat [1] | Percent Reduction of Malodor Intensity, Bathroom [2] [%] | Percent Reduction of Malodor Intensity, Mold/Mildew [2] [%] | Percent Reduction of Malodor Intensity, Smoke [2] [%] | Percent Reduction of Malodor Intensity, Sweat [2] [%] |
| --- | --- | --- | --- | --- | --- | --- |
| CC(=O)C(C)C(C)C(C)C (stereo not drawn) [Compound 6, 3,4,5-trimethyl-hexan-2-one] | 4.04 | 4.30 | 87 | 90 | 84 | 83 |
| CC(C)CC1OC(C)CCC1C(C)CC=O (stereo not drawn) [Compound 3, 3-[6-methyl-2-(2-methylpropyl)tetrahydro-2H-pyran-3-yl]butanal] | 4.08 | 4.15 | 85 | 81 | 82 | 86 |
| CC(C)C(C)C(C)C(C)O (stereo not drawn) [Compound 5, 3,4,5-trimethyl-hexan-2-ol] | 4.22 | 4.47 | 92 | 80 | 83 | 85 |
| CCOC1C(C)CCCC1C (stereo not drawn) [Compound 2, 2-ethoxy-1,3-dimethyl-cyclohexane] | 4.44 | 4.56 | 90 | 79 | 87 | 90 |
| CCCCCCOC1CCC(C)(C)O1 (stereo not drawn) [Compound 4, 5-hexyloxy-2,2-dimethyl-tetrahydro-furan] | 4.27 | 4.53 | 83 | 74 | 76 | 79 |
| COC1CCC(C(C)C)CC1 (stereo not drawn) [Compound 1, 1-methoxy-4-(methylethyl)-cyclohexane] | 4.62 | 4.51 | 92 | 88 | 84 | 83 |
